Test results published in publication PMC4872591, “An evaluation of Minor Groove Binders as anti-Trypanosoma brucei brucei therapeutics” (European Journal of Medicinal Chemistry, 2016).
pIC50: −log10 of the molar value. Like-named read-outs stand apart in the source and are kept apart here.

System: Bloodstream form T. b. brucei (Lister 427)
Assay: Trypanosoma brucei brucei Alamar Blue assay
Assay type: cell-based
Conditions: for IC50: values in μM, read-out: IC50 against T. b. brucei
Protocol: IC50 values against trypanosomes were determined by Alamar Blue assay. […] After this time, 20 μL of resazurin dye (Sigma–Aldrich) solution at 0.49 mM was added. […] Output was plotted using the IC50 determination algorithm of Prism 5.0 software (GraphPad). Three independent experiments were carried out in duplicate for each compound.

[1] = Table 1, Alamar Blue, 48 h + 24 h, all standard deviations less than 2%, read-out: IC50 against Trypanosoma brucei brucei
[2] = Trypanosoma brucei, Table 1, Alamar Blue, 48 h + 24 h, all standard deviations less than 2%, read-out: IC50 against Trypanosoma brucei brucei
[3] = Trypanosoma brucei, Table S2 (supplement), T. b. brucei activity, read-out: IC50

Compound | pIC50 [2] | pIC50 [3] | further results
2-{[(4-{[(4-{[Imino(4-methoxy-2-pyridinyl)methyl]amino}-1-methyl-1H-pyrrol-2-yl)carbonyl]amino}-1-methyl-1H-pyrrol-2-yl)carbonyl]amino}-5-isopropyl-N-[2-(4-morpholinyl)ethyl]-1,3-thiazole-4-carboxamide [Compound 5] |  |  | pIC50 [1]: < 4.12; IC50: > 75 µM
4-(Formylamino)-1-methyl-N-[1-methyl-5-({[1-methyl-5-({[2-(4-morpholinyl)ethyl]amino}carbonyl)-1H-pyrrol-3-yl]amino}carbonyl)-1H-pyrrol-3-yl]-1H-pyrrole-2-carboxamide [Compound 4] |  |  | pIC50 [1]: 4.32
CN(C)CCCNC(=O)c1cc(NC(=O)c2cc(NC(=O)c3cc(NC(=N)c4ccccc4)cn3C)cn2C)cn1C [Compound 1, N-[5-({[5-({[3-(Dimethylamino)propyl]amino}carbonyl)-1-methyl-1H-pyrrol-3-yl]amino}carbonyl)-1-methyl-1H-pyrrol-3-yl]-4-{[imino(phenyl)methyl]amino}-1-methyl-1H-pyrrole-2-carboxamide] | < 4.12 |  | IC50 (Trypanosoma brucei): > 75 µM
CC(=N)Nc1cc(C(=O)Nc2cc(C(=O)Nc3cc(C(=O)NCCCN(C)C)n(C)c3)n(C)c2)n(C)c1 [Compound 2, N-[5-({[5-({[3-(Dimethylamino)propyl]amino}carbonyl)-1-methyl-1H-pyrrol-3-yl]amino}carbonyl)-1-methyl-1H-pyrrol-3-yl]-4-(ethanimidoylamino)-1-methyl-1H-pyrrole-2-carboxamide] | < 4.12 |  | IC50 (Trypanosoma brucei): > 75 µM
Cn1cc(NC(=O)c2cc(NC(=O)c3cc(NC(=O)c4ccc(Cl)cc4Cl)cn3C)cn2C)cc1C(=O)NCCN1CCOCC1 [Compound 3, 4-[(2,4-Dichlorobenzoyl)amino]-1-methyl-N-[1-methyl-5-({[1-methyl-5-({[2-(4-morpholinyl)ethyl]amino}carbonyl)-1H-pyrrol-3-yl]amino}carbonyl)-1H-pyrrol-3-yl]-1H-pyrrole-2-carboxamide] | 6.40 |  | 
CC(C)n1cc(NC(=O)c2cc(NC(=O)c3cnc(Cl)c(Cl)c3)cn2C)cc1C(=O)Nc1cc(C(=O)NCCCN(C)C)n(C)c1 [Compound 6, 5,6-Dichloro-N-[5-({[5-({[5-({[3-(dimethylamino)propyl]amino}carbonyl)-1-methyl-1H-pyrrol-3-yl]amino}carbonyl)-1-isopropyl-1H-pyrrol-3-yl]amino}carbonyl)-1-methyl-1H-pyrrol-3-yl]nicotinamide] | 5.40 |  | 
COc1cccc(C(=N)Nc2cc(C(=O)Nc3cc(C(=O)Nc4cc(C(=O)NCCCN(C)C)n(C)c4)n(C(C)C)c3)n(C)c2)c1 [Compound 7, N-[5-({[5-({[3-(Dimethylamino)propyl]amino}carbonyl)-1-methyl-1H-pyrrol-3-yl]amino}carbonyl)-1-isopropyl-1H-pyrrol-3-yl]-4-{[imino(3-methoxyphenyl)methyl]amino}-1-methyl-1H-pyrrole-2-carboxamide] | 4.57 |  | 
COc1cccc(C(=N)Nc2cc(C(=O)Nc3cc(C(=O)Nc4cc(C(=O)NCCCN5CCOCC5)n(C)c4)n(C)c3)n(C)c2)c1 [Compound 9, 4-{[(4-{[imino(3-methoxyphenyl)methyl]amino}-1-methyl-1H-pyrrol-2-yl)carbonyl]amino}-1-methyl-N-[1-methyl-5-({[3-(4-morpholinyl)propyl]amino}carbonyl)-1H-pyrrol-3-yl]-1H-pyrrole-2-carboxamide] | < 4.12 |  | IC50 (Trypanosoma brucei): > 75 µM
COc1cccc(/C=C/c2ccc(C(=O)Nc3cc(C(=O)Nc4nc(C(=O)NCCCN(C)C)c(CCC(C)C)s4)n(C)c3)cc2)c1 [Compound 11, N-[3-(dimethylamino)propyl]-5-isopentyl-2-({[4-({4-[(E)-2-(3-methoxyphenyl)ethenyl]benzoyl}amino)-1-methyl-1H-pyrrol-2-yl]carbonyl}amino)-1,3-thiazole-4-carboxamide] | 6.55 | 6.52 | 
COc1cccc(/C=C/c2cccc(C(=O)Nc3cc(C(=O)Nc4nc(C(=O)NCCCN(C)C)c(CCC(C)C)s4)n(C)c3)c2)c1 [Compound 12, N-[3-(Dimethylamino)propyl]-5-isopentyl-2-({[4-({3-[(E)-2-(3-methoxyphenyl)ethenyl]benzoyl}amino)-1-methyl-1H-pyrrol-2-yl]carbonyl}amino)-1,3-thiazole-4-carboxamide] | 6.74 | 6.55 | 
CC(C)CCc1sc(NC(=O)c2cc(NC(=O)c3cc(/C=C/c4ccc([N+](=O)[O-])cc4)cn3C)cn2C)nc1C(=O)NCCCN(C)C [Compound 13, N-[3-(dimethylamino)propyl]-5-isopentyl-2-[({1-methyl-4-[({1-methyl-4-[(E)-2-(4-nitrophenyl)ethenyl]-1H-pyrrol-2-yl}carbonyl)amino]-1H-pyrrol-2-yl}carbonyl)amino]-1,3-thiazole-4-carboxamide] | 6.68 | 6.74 | 
Cn1cc(NC(=O)c2cc(NC(=O)c3cc4ccccc4cn3)cn2C)cc1C(=O)NCCN1CCOCC1 [Compound 14, N-[1-Methyl-5-({[1-methyl-5-({[2-(4-morpholinyl)ethyl]amino}carbonyl)-1H-pyrrol-3-yl]amino}carbonyl)-1H-pyrrol-3-yl]-3-isoquinolinecarboxamide] | 6.01 | 6.68 | 
CN(C)CCCNC(=O)c1cc(NC(=O)c2cc(NC(=O)c3cc4ccccc4cn3)cn2C)cn1C [Compound 15, N-[5-({[5-({[3-(Dimethylamino)propyl]amino}carbonyl)-1-methyl-1H-pyrrol-3-yl]amino}carbonyl)-1-methyl-1H-pyrrol-3-yl]-3-isoquinolinecarboxamide] | 5.66 | 6.01 | 
Cn1cc(NC(=O)c2cc(NC(=O)c3ccc(/C=C/c4nc5ccccc5o4)cc3)cn2C)cc1C(=O)NCCN1CCOCC1 [Compound 16, 4-({4-[(E)-2-(1,3-benzoxazol-2-yl)ethenyl]benzoyl}amino)-1-methyl-N-[1-methyl-5-({[2-(4-morpholinyl)ethyl]amino}carbonyl)-1H-pyrrol-3-yl]-1H-pyrrole-2-carboxamide] | 6.10 | 5.66 | 
CN(C)CCCNC(=O)c1cc(NC(=O)c2cc(NC(=O)c3cc(NC(=N)c4cc5ccccc5cn4)cn3C)cn2C)cn1C [Compound 17, N-[5-({[3-(dimethylamino)propyl]amino}carbonyl)-1-methyl-1H-pyrrol-3-yl]-4-{[(4-{[imino(3-isoquinolinyl)methyl]amino}-1-methyl-1H-pyrrol-2-yl)carbonyl]amino}-1-methyl-1H-pyrrole-2-carboxamide] | 5.31 |  | 
CC(C)CCc1sc(NC(=O)c2cc(NC(=O)c3cc4ccccc4cn3)cn2C)nc1C(=O)NCCCN(C)C [Compound 18, N-[5-({[4-({[3-(Dimethylamino)propyl]amino}carbonyl)-5-isopentyl-1,3-thiazol-2-yl]amino}carbonyl)-1-methyl-1H-pyrrol-3-yl]-3-isoquinolinecarboxamide] | 6.41 |  | 
Cn1cc(NC(=O)c2cc(NC(=O)c3ccc(/C=C/c4ccc(C(F)(F)F)cc4)cc3)cn2C)cc1C(=O)NCCN1CCOCC1 [Compound 22, 1-methyl-N-[1-methyl-5-({[2-(4-morpholinyl)ethyl]amino}carbonyl)-1H-pyrrol-3-yl]-4-[(4-{(E)-2-[4-(trifluoromethyl)phenyl]ethenyl}benzoyl)amino]-1H-pyrrole-2-carboxamide] | 6.14 |  | 
CC(C)CCc1sc(NC(=O)c2cc(NC(=O)c3ccc(/C=C/c4ccc5ccccc5n4)cc3)cn2C)nc1C(=O)NCCN1CCOCC1 [Compound 23, 5-isopentyl-2-({[1-methyl-4-({4-[(E)-2-(2-quinolinyl)ethenyl]benzoyl}amino)-1H-pyrrol-2-yl]carbonyl}amino)-N-[2-(4-morpholinyl)ethyl]-1,3-thiazole-4-carboxamide] | 6.21 |  | 
Cn1cc(NC(=O)c2cc(NC(=O)c3ccc(/C=C/c4ccncc4)cc3)cn2C)cc1C(=O)NCCN1CCOCC1 [Compound 24, 1-Methyl-N-[1-methyl-5-({[2-(4-morpholinyl)ethyl]amino}carbonyl)-1H-pyrrol-3-yl]-4-({4-[(E)-2-(4-pyridinyl)ethenyl]benzoyl}amino)-1H-pyrrole-2-carboxamide] | 6.42 |  | 
Cn1cc(NC(=O)c2cc(NC(=O)c3cc(NC(=O)c4ccc(Cl)cc4Cl)cn3C)cn2C)cc1C(=O)NCCCN1CCOCC1 [Compound 25, 4-[(2,4-Dichlorobenzoyl)amino]-1-methyl-N-[1-methyl-5-({[1-methyl-5-({[3-(4-morpholinyl)propyl]amino}carbonyl)-1H-pyrrol-3-yl]amino}carbonyl)-1H-pyrrol-3-yl]-1H-pyrrole-2-carboxamide] | 5.64 | 6.10 | 
Cn1cc(NC(=O)c2cc(NC(=O)c3ccc(/C=C/c4ccc(F)cc4)cc3)cn2C)cc1C(=O)NCCN1CCOCC1 [Compound 26, 4-({4-[(E)-2-(4-fluorophenyl)ethenyl]benzoyl}amino)-1-methyl-N-[1-methyl-5-({[2-(4-morpholinyl)ethyl]amino}carbonyl)-1H-pyrrol-3-yl]-1H-pyrrole-2-carboxamide] | 6.15 |  | 
Cn1cc(NC(=O)c2cc(NC(=O)c3ccc(/C=C/c4cccc(F)c4)cc3)cn2C)cc1C(=O)NCCN1CCOCC1 [Compound 27, 4-({4-[(E)-2-(3-fluorophenyl)ethenyl]benzoyl}amino)-1-methyl-N-[1-methyl-5-({[2-(4-morpholinyl)ethyl]amino}carbonyl)-1H-pyrrol-3-yl]-1H-pyrrole-2-carboxamide] | 6.66 |  | 
COc1ccc(/C=C/c2ccc3cc(C(=O)Nc4cc(C(=O)Nc5cc(C(=O)NCCN6CCOCC6)n(C)c5)n(C)c4)ccc3n2)cc1 [Compound 30, 2-[(E)-2-(4-Methoxyphenyl)ethenyl]-N-[1-methyl-5-({[1-methyl-5-({[2-(4-morpholinyl)ethyl]amino}carbonyl)-1H-pyrrol-3-yl]amino}carbonyl)-1H-pyrrol-3-yl]-6-quinolinecarboxamide] | 6.20 |  | 
